Key:
[1] = tested on: Hdj2; assay: Hdj2 immunoblot of IB3-1 lysates; assay type: cell-based, human; conditions: IB3-1 cells, increasing concentrations of 4-PBA
Description: (§1) 3. Immunoblot analysis. Whole cell lysates were prepared by solubilization with 2% SDS at 95° C. Protein concentration in the lysates was determined using the Bio-Rad DC assay reagents with bovine plasma g-globulin as a standard (Bio-Rad Laboratories, Hercules, Calif.). Equal amounts of protein was resolved on 5, 7, 8, or 9% SDS-polyacrylamide gels. Proteins were transferred to nitrocellulose, and immunodetection was performed as previously described (25). Nonspecific binding was blocked by incubation of the nitrocellulose with 2% gelatin or 10% nonfat day milk. Primary antisera and secondary antibodies were applied in buffer containing 0.4% BSA overnight at 4° C. and for 1 h at room temperature, respectively. Detection of immunoreactivity was performed with the enhanced chemiluminescence reagent (ECL, Amer-sham) and fluorography. Recombinant bovine Hsc70 ([…]) was purchased from Stressgen Biotechnologies for use in constructing a standard curve of Hsc70 immunoreactivity. Immunoblots containing the bovine Hsc70 were probed with the Hsc70-specific polyclonal antiserum.
Whether 4-PBA would regulate expression of a number of other molecular chaperones in IB3-1 cells (FIG. 2) was assessed next. […] Hsp90 is required for correct folding and function of a number of cellular proteins (16). […]

[2] = tested on: Hsp70; assay: Hsp70 immunoblot of IB3-1 lysates; assay type: cell-based, human; conditions: IB3-1 cells
Description: as §1
(§2) Whether 4-PBA would regulate expression of a number of other molecular chaperones in IB3-1 cells (FIG. 2) was assessed next. […] Hsp90 is required for correct folding and function of a number of cellular proteins (16). […] Hsp70 (Hsp72) expression is induced by heat shock and the presence of denatured proteins within the eukaryotic cell (16). In Escherichia coli, the Hsp70 homologue DnaK and the Hsp40 homologue DnaJ act to promote protein folding (16). Hdj2 is the member of the Hsp40 family that specifically interacts with and regulates the ATPase activity of Hsc70. Hdj2 also interacts with CFTR during CFTR translation (26).
FIGS. 2A-2E are more specifically explained as follows. […] IB3-1 cells were treated as described for FIG. 1. Immunoblotting with 5 μg of IB3-1 SDS lysate protein was performed as described in the foregoing General Comments.
FIGS. 5A-C are explained in more detail as follows. […] A: IB3-1 cells were incubated at 37° C. for 2 days under indicated conditions. Cellular homogenates were prepared in 2% SDS as described in METHODS, and 5 μg of total cellular protein were analyzed by immunoblot for Hsc70 using rabbit polyclonal antiserum, Hsp90, Hsp70, Hsp40 as described above under General Comments. Con, control. B and C: densitometric analysis of Hsc70 expression (B) and Hsp90, Hsp70, and Hsp40 expression (C) was performed as described for FIG. 1. B: means 6 SE of density in 4 independent experiments.

[3] = growth medium, 37° C., 5% CO2; previously determined (ref. 30); cited from earlier work
[4] = tested on: Hsp90; assay: Hsp90 immunoblot of IB3-1 lysates; assay type: cell-based, human; conditions: IB3-1 cells, increasing concentrations of 4-PBA
Description: as §1, §2
(§3) FIGS. 2A-2E are more specifically explained as follows. […]
(§4) FIGS. 5A-C are explained in more detail as follows. […] Cellular homogenates were prepared in 2% SDS as described in METHODS, and 5 μg of total cellular protein were analyzed by immunoblot for Hsc70 using rabbit polyclonal antiserum, Hsp90, Hsp70, Hsp40 as described above under General Comments. […]

[5] = tested on: Hsp40; assay: Hsp40 immunoblot of IB3-1 lysates; assay type: cell-based, human; conditions: IB3-1 cells, increasing concentrations of 4-PBA
Description: as §1, §2, §3, §4

O=C(O)CCCc1ccccc1 [4-PBA, 4-phenylbutyric acid]
expression of Hdj-2 [1]: did not affect
expression of Hsp70 ([2]; increasing concentrations of 4-PBA (Example 1)): did not affect
Hsp70 expression ([2]; increasing concentrations of 4-phenylbutyrate (Example 11, FIG. 14)): induces Hsp70 in a dose-dependent manner
time for which a constant concentration is maintained under culture conditions [3]: at least 2 days
expression of Hsp90 [4]: did not affect
expression of Hsp40 [5]: did not affect
